For nine compounds, IC50, inhibition and Kd results are on record in publication PMC11123979, “Discovery of Nine Dipeptidyl Peptidase-4 Inhibitors from Coptis chinensis Using Virtual Screening, Bioactivity Evaluation, and Binding Studies” (Molecules, 2024).

Where two headings read alike, the source gives them in different places.

The target in assay [1] is T1, DPP-4 (Homo sapiens, UniProt P27487).
T1 construct: purchased Cayman Chemical Company 700210
The assay is described as follows: DPP-4 inhibition assay (commercial DPP-4 inhibitor screening assay kit, fluorescence). The format is biochemical. To be noted: for IC50: dose-response curves, read-out: IC50 value of the DPP-4 inhibitory activity; for inhibition at 30 µM: read-out: DPP-4 inhibition (primary screening). As for the experimental part: The DPP-4 inhibitory activity of 39 potential compounds obtained via virtual screening was tested using a commercial DPP-4 inhibitor screening assay kit (Item No. 700210, Cayman Chemical Company, Ann Arbor, MI, USA), and the kit’s instructions were followed exactly. The fluorescence intensity was measured at an excitation/emission wavelength of 360/460 nm using an EnVision Multilabel Reader (2104 PerkinElmer, Waltham, MA, USA). The possibility of false positives was eliminated by assessing the autofluorescence of each test compound. […] These compounds were prepared at a concentration of 30 μM in deionized water that contained 0.5% DMSO. […] The half-maximal inhibitory concentration (IC50) was determined using GraphPad Prism 9 software.

The target of assay [2] is T1, DPP-4. The assay is described as follows: SPR-based binding assay (BIAcore T200, DPP-4 immobilized on CM5 chip). To be noted: 'Affinity' module, 1:1, 25 °C, Tris-HCl pH 8.0. As for the experimental part:
The binding affinity between DPP-4 and six alkaloids in Coptis chinensis was evaluated using the BIAcore T200 system (GE Healthcare, Uppsala, Sweden). All SPR-related materials were obtained from GE Healthcare, and DPP-4 (D3446) was purchased from Sigma-Aldrich Chemical Co. (St. Louis, MO, USA). The DPP-4 protein, dissolved in PBS at a concentration of 40 ng/μL, was immobilized onto the surface of a CM5 sensor chip using a standard amine-coupling procedure. The test compounds were prepared at varying concentrations in a solution of Tris-Hcl (pH 8.0) and injected over the surface of the chip at a rate of 30 μL·min^−1 and a temperature of 25 °C. A reference flow cell without the immobilization of DPP-4 served as a control for non-specific binding. […] The chip could be regenerated and reused multiple times after it was treated with glycine–HCl (10 mM; pH 2.0). The test compounds were evaluated using the single-cycle kinetics mode across a two-fold concentration series (1.17–100 µM). The equilibrium constant (KD) was calculated based on the 1:1 reaction ratio between the molecule and protein, using the ‘affinity” module in the Biacore T200 software.
(In general: In SPR one partner is held on a chip, and binding of the other changes the refractive index at the surface.)

T1 sequence (P27487 whole entry): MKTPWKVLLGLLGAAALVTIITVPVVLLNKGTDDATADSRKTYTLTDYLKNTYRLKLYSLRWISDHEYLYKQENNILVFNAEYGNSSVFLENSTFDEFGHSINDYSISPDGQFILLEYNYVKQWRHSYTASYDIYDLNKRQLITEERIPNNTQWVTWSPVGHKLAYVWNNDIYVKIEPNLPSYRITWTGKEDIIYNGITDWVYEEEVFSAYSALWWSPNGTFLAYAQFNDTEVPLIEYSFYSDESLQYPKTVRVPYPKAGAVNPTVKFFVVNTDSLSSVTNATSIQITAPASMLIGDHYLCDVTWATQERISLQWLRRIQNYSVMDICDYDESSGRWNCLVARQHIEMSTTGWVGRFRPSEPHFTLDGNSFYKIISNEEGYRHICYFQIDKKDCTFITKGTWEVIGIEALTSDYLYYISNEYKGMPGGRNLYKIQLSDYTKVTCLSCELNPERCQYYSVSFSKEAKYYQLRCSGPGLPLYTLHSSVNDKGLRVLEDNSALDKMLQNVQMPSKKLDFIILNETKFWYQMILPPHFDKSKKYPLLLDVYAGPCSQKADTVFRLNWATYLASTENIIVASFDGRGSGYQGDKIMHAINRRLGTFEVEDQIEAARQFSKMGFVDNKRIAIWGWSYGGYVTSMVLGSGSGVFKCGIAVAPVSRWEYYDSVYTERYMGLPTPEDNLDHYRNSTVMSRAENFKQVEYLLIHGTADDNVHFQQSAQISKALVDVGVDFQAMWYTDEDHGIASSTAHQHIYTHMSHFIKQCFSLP

For the compound `COc1cc2c(cc1O)-c1cc3ccc(OC)c(OC)c3c[n+]1CC2` [columbamine], at DPP-4 [1], the IC50 – broadly, the concentration that inhibits the measured activity by half – came to 3.44 µM. The inhibition (commonly the change of the read-out against control, counted positive when it falls) at 30 µM on DPP-4 [1] (final concentration of 30 μM) is > 40%. On DPP-4 [2], the dissociation constant (Kd) (usually the equilibrium constant for the complex coming apart) came out at 8.11 µM.

On to `COc1cc2c(cc1O)CC[n+]1cc3c(OC)c(OC)ccc3cc1-2` [jatrorrhizine], for which, on DPP-4 [1], the IC50 was 26.9 µM and the inhibition at 30 µM is > 40%. The Kd at DPP-4 [2] was 12.1 µM.

As to `COc1ccc2cc3[n+](cc2c1OC)CCc1cc2c(cc1-3)OCO2` [berberine], the IC50 on DPP-4 [1] stood at 53.7 µM. Further, the inhibition at 30 µM at DPP-4 [1] (final concentration of 30 μM) was > 40%. The compound also came in with a Kd on DPP-4 [2] of 30 µM.

For the compound `COc1cc2c(cc1O)CC[n+]1cc3c4c(ccc3cc1-2)OCO4` [groenlandicine], the IC50 on DPP-4 [1] was determined as 13.4 µM. The inhibition at 30 µM on DPP-4 [1] (final concentration of 30 μM) was > 40%. Besides, binding at DPP-4 [2] was characterised by a dissociation constant (Kd) of 15 µM.

Turning to `COc1ccc2cc3[n+](cc2c1O)CCc1cc2c(cc1-3)OCO2` [berberrubine], on DPP-4 [1], the IC50 amounted to 27.4 µM. Also, on DPP-4 [1] (final concentration of 30 μM), the inhibition at 30 µM was > 40%. Further, the affinity on DPP-4 [2], expressed as Kd, was 18.8 µM.

On to `COc1ccc2cc3[n+](cc2c1OC)CCc1cc(O)c(O)cc1-3` [demethyleneberberine], for which the IC50 on DPP-4 [1] turned out to be 3.63 µM. Also, the inhibition at 30 µM at DPP-4 [1] (final concentration of 30 μM) was > 40%.

For `c1c2c(cc3c1OCO3)-c1cc3ccc4c(c3c[n+]1CC2)OCO4` [coptisine], the 50% inhibitory concentration (IC50) on DPP-4 [1] came to 8.91 µM. Further, the inhibition at 30 µM at DPP-4 [1] (final concentration of 30 μM) was > 40%. The compound further came in with a Kd on DPP-4 [2] of 13.8 µM.

`COc1cc2c(cc1OC)-c1cc3ccc4c(c3c[n+]1CC2)OCO4` [epiberberine]: the IC50 at DPP-4 [1] was found to be 35.6 µM. On DPP-4 [1] (final concentration of 30 μM), the inhibition at 30 µM was > 40%.

As for `COc1cc2c(cc1OC)-c1cc3ccc(OC)c(OC)c3c[n+]1CC2` [palmatine], the IC50 on DPP-4 [1] came to 49.8 µM. Besides, the inhibition at 30 µM on DPP-4 [1] (final concentration of 30 μM) is > 40%.
